Reference: patent publication US20100130432A1, “Non-Natural Amino Acids and Neurotensin Analogues Thereof” (priority 2005, published 2010)
Where a name gives a salt, the structure may show the parent alone. Marks after values point to notes of the source that are not given here. Non-standard residues stand in square brackets, D forms with d. Residues, ends and D or L forms follow the SMILES beside them. No end group written: not given here. *: point of attachment. X5 = [N-]=[N+]=N[C@@H](CCCCCN)C(=O)*; X2 = C[C@@H](CCC[N+](C)(C)C)C(=O)*; Tle = CC(C)(C)[C@H](N)C(=O)O; hLys = NCCCCC[C@H](N)C(=O)O; X1 = C[C@@H](CCCCCN)C(=O)*; Orn = NCCC[C@H](N)C(=O)O

What was measured:
NTR-1 = NTR-1 (Homo sapiens, UniProt P30989); test: Competitive NTR binding versus radiolabeled NT[8-13]
NTR-2 = NTR-2 (Homo sapiens, UniProt O95665); test: as above
rats [1] = test: Clinical observation after high IV or PO dose; format: in vivo, rat
Experimental: During the 2 and 24 hour post-dosing clinical observation periods, measurements of core body temperatures were taken.

[2] = Brain distribution of ABS201 (LC/MS/MS)
Source text: (§1) At selected time points, blood was removed or brain harvested and the concentration of the peptide analog determined using LC/MS/MS.
(§2) These samples were then used for the determination of plasma and brain drug levels by LC/MS/MS for estimating BBB penetration and pharmacokinetic parameters.

[3] = Pharmacokinetics of ABS201 in blood/plasma (LC/MS/MS); conditions: SD, rat, in vivo, iv, 100 mg/kg
Source text: as §1, §2

[4] = Pharmacokinetics of ABS212 in plasma (LC/MS/MS); format: in vivo, rat
Source text: These samples were used for the determination of plasma parent drug concentrations by LC/MS/MS for estimating pharmacokinetic parameters and oral bioavailability.

rats [5] = test: Catalepsy, horizontal bar test; conditions: IP 1 mg/kg, cut-off 30 sec
Experimental: (§3) Cataleptic Analysis. […] To circumvent these potential confounding factors, tests are performed on an animal only once in a quiet, controlled environment.
(§4) Catalepsy Assessment. […] Rats were given an IP injection of peptide (5 mg/Kg), saline, or haloperidol (1 mg/kg). After 3 hours, catalepsy was measured using the horizontal bar test. Briefly, the front paws were placed directly on a horizontal bar 5 mm in diameter placed 7.5 cm above the cage floor. The rat was held in this position for 3 sec and then released. The time from release until the paws return to the cage floor was measured and recorded. A cut-off time of 30 sec was observed; this indicated a fully cataleptic animal as cataleptic animals are frozen to the bar. […] Measures were repeated every 30 min for 4 hr. Data are means±SEM (p<0.01).

rats [6] = test: Formalin assay; format: in vivo, rat; conditions: ABS212 10 mg/kg, Morphine 5 mg/kg
Experimental: Formalin Assay. […] Animals were scored every minute on the following scale: 0=forepaw flat on floor, 1=forepaw just touching floor, 2=forepaw held up off of floor, and 3=forepaw licked or bitten. […] The animals were immediately be placed into the observation cages, and their behavior recorded over the following 30 minutes. After each experiment, rats were euthanized with CO2 followed by cervical dislocation. An average Pain Rating over time versus the baseline and formalin-only controls for each peptide tested were plotted, and statistical analysis were performed using a one-way analysis of variance (ANOVA). Differences were considered statistically significant at the 5% confidence interval. N=6 or greater for all experiments.

rats [7] = test: Tail flick assay; format: in vivo, rat; conditions: ABS212 10 mg/kg, Morphine 5 mg/kg
Experimental: The Tail Flick Assay. Each of 6 rats per experiment were placed in a Plexiglas restraint box. A standard laboratory hot water bath was maintained at 49° C. The distal 3 cm of the rat's tail was submerged into the water, and the time from insertion to tail flick or removal of tail from the water was recorded. Animals are removed immediate4ly at the cutoff latency of 10 seconds. MPEs were calculated, with a MPE of 100% corresponding to the rat's tail remaining in the water bath for 10 seconds. This was repeated 3 times. The tail was dried and allowed to rest for 20 seconds between trials. The rat was then given the appropriate amount of peptide and the experiment repeated at 30 and 60 minutes. Treatment conditions were distributed over the study in a counterbalanced design to control for such factors as calendar period and order of dosing. N=6 or greater for all experiments.

rats [8] = conditions: rat, in vivo
Experimental: as §3, §4

rats [9] = test: Induced hypothermia (rectal temperature) after IP or oral administration; conditions: IP 5 mg/kg, Table 5
Source text: Hypothermia as a Preliminary Screen of CNS Activity.
Animal Restraint. Rats were restrained in Plas-Labs® plastic cages fitted with wooden dowels to restrict movement. Rectal temperature probes (Physitemp®, RET-2, Clifton, N.J.), lubricated with mineral oil, were inserted into the rectum of each animal. Probes were connected to a microprobe thermometer (Physitemp®, BAT-12) in conjunction with a thermocouple selector (Physitemp®, SWT-5). Rats were allowed to acclimate to the cages for 1 hr prior to IP injection.
Peptide Preparation. […] For oral administration, the test article was administered directly into the animals' stomach by gavaging. Controls involved the administration of 0.9% NaCl. Thus, peptides were dissolved in saline, and following the equilibration period, rats were given an IP injection of peptide (5 mg/kg) or saline (1 mL/kg). […]
Hypothermia. […] For each rat, a thermistor probe was placed 4.5 cm into the rectum; baseline temperatures were recorded for 1 hr to allow habituation to the cages prior to injection of compound. […]
The former activity is most easily monitored by measuring the extent of induced hypothermia (core body temperature loss), which is a measure of NTR-1 binding and agonism and thus antipsychotic activity. Hypothermia is followed routinely over time through insertion of a thermometer probe hooked up to a digital readout box into the anus of the rats.

rats [10] = test: d-Amphetamine induced hyperlocomotion / locomotor activity chambers; format: in vivo, rat; conditions: rat, in vivo
Source text: Sound- and light-attenuated locomotor cages are used to measure the ability of potential candidates to decrease d-amphetamine-induced hyperactivity.
d-Amphetamine induced hyperlocomotion. Experimentally I male Sprague-Dawley rats were housed as described above. Rats were handled for three days prior to testing to minimize experimenter induced hyperlocomotion on test day. For experiments, sound- and light-attenuated automated photocell beam activity chambers (AccuScan Instruments, Inc., Columbus, Ohio) were used to measure locomotion. Cages were connected to a VersaMax Analyzer (AccuScan) in conjunction with an IBM computer using VersaMax 1.80-0146 software (AccuScan) to record vertical and horizontal activity. Total activity values recorded were the sum of vertical and horizontal activity. […]
Rats were placed in the activity chambers for 30 minutes to habituate and establish baseline activity levels. Then, rats were removed and given an IP or oral dose of peptide (N=7) or saline (N=8) and returned to the chamber to establish the peptide's effect on spontaneous activity levels. About 30 minutes after administration, rats were removed and given an IP injection of d-amphetamine (1 mg/kg) or vehicle and returned to the chamber for a further 1 hr to assess the effect of the peptide on induced hyperlocomotion.
Chronic Testing Protocols.
Separate two-factor ANOVAs for DOSE X TIME were performed for each different time-phase of the assay. Phases for the IP dosing and oral dosing experiments consisted of habituation (time points 10-60), drug (time points 70-120), and amphetamine (time points 130-240).

rats [11] = test: Hotplate assay; format: in vivo, rat; conditions: for MPE (I.P.) / Tmax (I.P.) of % MPE / MPE (oral) / Tmax (Oral) of % MPE: hotplate; for MPE (I.P.) / Tmax (I.P.) of % MPE: IP at 10 mg/kg; for MPE (oral) / Tmax (Oral) of % MPE: orally at 20 mg/kg
Source text: Animals. Experimentally naïve male Sprague-Dawley rats from Charles River Laboratories, Raleigh, N.C. (230-260 g) or Harlan, Prattville Ala. (240-280 g), were maintained 4 per cage in animal quarters on a regular light/dark cycle (lights on 0600-1800) with ad libitum food and water for approximately 1 week before the experiment. The range of body weights on the 2 days of testing was 230-260 grams. The experiment was done on one day, with animals allowed to recover for three days before experiments are repeated.
Peptide Preparation. Test articles are prepared at the desired concentration in saline for either IP injection or gavage administration with N=6 for each dose and vehicle. Morphine (5 mg/kg) is used as a control for certain protocols. […] Apomorphine HCl (Sigma-Aldrich, St. Louis, Mo.) was dissolved in distilled water at a concentration of 5 mg/mL within 40 minutes of administration for injection at 1 mL/kg S.C. to give a dose of 5 mg/kg. When complete ED50s are determined, dosing range of the peptide will be 10, 3, 1, 0.3, 0.1 of the estimated ED50, covering two log orders of range.
The Hotplate Assay. The hotplate assay, a standard rat model for […] pain (see Le Bars et al., Pharmacol. Rev. 53: 597-652 (2001) and Chapman et al., Pain 22:1-31 (2002)), was performed as follows. A hotplate maintained at 52° C. to 53° C. was enclosed on four sides in a plexiglass chamber that extended 6 in. above the plate. Animals were placed on the plate, and the latency between the time a rat was placed on the surface and when it lifts or licks a back paw (indicative of pain sensation) was determined. Animals are removed immediately at the cutoff latency of 30 seconds. Assays are scored as the percent of maximal possible effect (% MPE) defined as 100%, which corresponds to the rats remaining on the hotplate for 30 seconds without responding. Thus, % MPE are calculated using the following equation: % MPE=[(post-drug latency−pre-drug latency)/(cut-off pre-drug latency)]×100%. N=6 or greater for all experiments.
Tmax indicates the time after dosing in which a maximum response was observed.

NTR-2, sequence (O95665 whole entry, species assumed): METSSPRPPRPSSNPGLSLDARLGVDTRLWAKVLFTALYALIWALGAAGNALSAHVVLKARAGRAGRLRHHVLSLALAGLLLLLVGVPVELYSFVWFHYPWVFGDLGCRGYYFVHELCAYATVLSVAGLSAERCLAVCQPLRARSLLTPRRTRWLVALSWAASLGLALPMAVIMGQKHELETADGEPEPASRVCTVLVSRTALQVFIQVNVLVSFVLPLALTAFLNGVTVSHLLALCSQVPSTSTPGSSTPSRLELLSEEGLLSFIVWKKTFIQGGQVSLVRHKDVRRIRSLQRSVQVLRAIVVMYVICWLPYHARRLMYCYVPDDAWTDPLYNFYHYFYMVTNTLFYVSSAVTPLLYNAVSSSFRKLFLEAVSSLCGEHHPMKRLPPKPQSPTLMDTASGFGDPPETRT
NTR-1, sequence (P30989 whole entry, species assumed): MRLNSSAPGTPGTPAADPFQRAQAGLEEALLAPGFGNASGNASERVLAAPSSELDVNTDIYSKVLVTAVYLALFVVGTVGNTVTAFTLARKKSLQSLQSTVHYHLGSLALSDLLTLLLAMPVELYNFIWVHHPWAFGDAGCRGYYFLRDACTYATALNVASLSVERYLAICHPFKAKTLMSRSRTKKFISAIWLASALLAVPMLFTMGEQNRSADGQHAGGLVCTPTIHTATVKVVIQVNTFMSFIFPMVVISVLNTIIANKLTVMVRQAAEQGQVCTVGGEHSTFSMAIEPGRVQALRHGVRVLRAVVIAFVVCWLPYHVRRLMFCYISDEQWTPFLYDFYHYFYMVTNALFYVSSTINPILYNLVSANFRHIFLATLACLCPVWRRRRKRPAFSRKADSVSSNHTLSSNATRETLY

For CC(C)C[C@H](NC(=O)[C@@H](NC(=O)[C@H](Cc1ccc(O)cc1)NC(=O)[C@@H]1CCCN1C(=O)[C@H](CCCNC(=N)N)NC(=O)[C@H](CCCCCN)N=[N+]=[N-])C(C)(C)C)C(=O)O [ABS13, N3-L-homolysine-Arg-Pro-Tyr-tertLeu-Leu-COOH] (X5-RPY[Tle]L-OH), the IC50 (NTR-1) was 5.7 ± 0.37 nM and the IC50 (NTR-2) was 11.1 ± 0.1 nM.
In the case of CC(C)C[C@H](NC(=O)[C@@H](NC(=O)[C@H](Cc1ccc(O)cc1)NC(=O)[C@@H]1CCCN1C(=O)[C@H](CCCNC(=N)N)NC(=O)[C@@H](C)CCCCCN)C(C)(C)C)C(=O)O [ABS201 HCl] (X1-RPY[Tle]L-OH), the “clinical observation 24 hour post-dosing” value (rats [1]; IV 50 mg/kg) is reported as “grossly normal; hypothermia was absent”, the “clinical observation immediately after dosing” value (rats [1]; IV 50 mg/kg) is reported as “obviously sedated” and the “clinical observation two hour post-dosing” value (rats [1]; IV 50 mg/kg) is reported as “marked hypothermia was present”. The clinical observation (rats [1]; PO 250 mg/kg) was “grossly normal at all time points”.
Work on CC(C)C[C@H](NC(=O)[C@@H](NC(=O)[C@H](Cc1ccc(O)cc1)NC(=O)[C@@H]1CCCN1C(=O)[C@H](CCCNC(=N)N)NC(=O)[C@@H](C)CCCCCN)C(C)(C)C)C(=O)O [ABS201.2HCl] (X1-RPY[Tle]L-OH) yielded an AUC0-t in brain ([2]; 15 min intravenous infusion 100 mg/kg) of 60.96 ng·h/g, a Cmax ([2]; SD, rat, brain, iv, 100 mg/kg) of 32.9 ng/g and a half-life ([2]; SD, rat, brain, iv, 100 mg/kg) of 4.85 h. The Vd [3] was 16.1 L/kg and the clearance [3] was 380 mL/min/kg.
In the case of CC(C)C[C@H](NC(=O)[C@@H](NC(=O)[C@H](Cc1ccc(O)cc1)NC(=O)[C@@H]1CCCN1C(=O)[C@H](CCCNC(=N)N)NC(=O)[C@@H](C)CCC[N+](C)(C)C)C(C)(C)C)C(=O)O [ABS-212.2HCL] (X2-RPY[Tle]L-OH), the “clearance as % of rat hepatic blood flow” value ([4]; IV bolus 1 mg/kg) is reported as 32.33%, the “clearance as % of rat hepatic blood flow” value ([4]; IV bolus 5 mg/kg) is reported as 12.08% and the “clearance as % of rat hepatic blood flow” value ([4]; IV bolus […]) is reported as 12.08%.
With O=C(CCCN1CCC(O)(c2ccc(Cl)cc2)CC1)c1ccc(F)cc1 [Haloperidol, reference compound] the duration of catalepsy (rats [5]) was “greater than 30 sec”.
For CN1CC[C@]23c4c5ccc(O)c4O[C@H]2[C@@H](O)C=C[C@H]3[C@H]1C5 [Morphine, reference compound], the “analgesic effect over the time course” value (rats [6]) was “loses activity after 30 minutes”, the “MPE (0 min)” value (rats [7]) was 0.03 +/− 0.05 and the “MPE (30 min)” value (rats [7]) was 63.7 +/− 41.9. The “MPE (60 min)” value (rats [7]) was 67.5 +/− 25.8.
In the case of CC[C@H](C)[C@H](NC(=O)[C@H](Cc1ccc(O)cc1)NC(=O)[C@@H]1CCCN1C(=O)[C@H](CCCNC(=N)N)NC(=O)[C@@H](N)CCCNC(=N)N)C(=O)N[C@@H](CC(C)C)C(=O)O [NT(8-13), NH2-Arg-Arg-Pro-Tyr-Ile-Leu-COOH, reference compound], the catalepsy (rats [8]) is reported as “No”, the “tmax (min) Time to maximal temperature decrease” value (rats [9]) is reported as 90 min and the “Δ in BT (° C.) Decrease in body temperature measured at tmax” value (rats [9]) is reported as −0.45 ± 0.17^d ° C. For the same molecule, the “Hyperlocomotion Inhibition (routes of administration)” value (rats [10]) was “CNS administration” and the “Inhibits locomotor activity (routes of administration)” value (rats [10]) was “CNS administration”.
In the case of Arg-Arg-Pro-Tyr-t-Leu-Leu [ABS213], the “MPE (I.P.)” value (rats [11]) is reported as 48% and the “Tmax (I.P.) of % MPE” value (rats [11]) is reported as 30.
For Arg-Arg-Pro-Tyr-tLeu-Leu [ABS237], the “MPE (I.P.)” value (rats [11]) was 50% and the “Tmax (I.P.) of % MPE” value (rats [11]) was 30.
With Boc-Arg-Pro-Tyr-t-Leu-Leu [ABS700] the “MPE (I.P.)” value (rats [11]) was 51% and the “Tmax (I.P.) of % MPE” value (rats [11]) was 90.
In the case of KRPY[Tle]L [ABS229], the “MPE (I.P.)” value (rats [11]) is reported as 48% and the “Tmax (I.P.) of % MPE” value (rats [11]) is reported as 60.
For Lys-Arg-Pro-Tyr-t-Leu-Leu [ABS205], the “analgesic effect relative to ABS212” value (rats [11]; gavage 20 mg/kg) was “as much or more active than ABS212”, the “MPE (I.P.)” value (rats [11]) was 86% and the “Tmax (I.P.) of % MPE” value (rats [11]) was 15-30. The “MPE (oral)” value (rats [11]) was 66% and the “Tmax (Oral) of % MPE” value (rats [11]) was 30.
In the case of Orn-Arg-Pro-Tyr-t-Leu-Leu [ABS209], the “MPE (I.P.)” value (rats [11]) is reported as 89% and the “Tmax (I.P.) of % MPE” value (rats [11]) is reported as 60.
With [Orn]RPY[Tle]L [ABS233] the “MPE (I.P.)” value (rats [11]) was 51% and the “Tmax (I.P.) of % MPE” value (rats [11]) was 45.
For [hLys]RPY[Tle]L [ABS225], the “MPE (I.P.)” value (rats [11]) was 100%, the “Tmax (I.P.) of % MPE” value (rats [11]) was 15-45 and the “MPE (oral)” value (rats [11]) was 38%. The “Tmax (Oral) of % MPE” value (rats [11]) was 30.
